Measurements: patent US20260355189A1, “SMALL MOLECULE INHIBITORS OF NEUTROPHIL EXOCYTOSIS AND INFLAMMATION” (THE SCRIPPS RESEARCH INSTITUTE, priority 2022, published 2026)

How the values were obtained:
[1] = system: human neutrophils (secretory vesicle marker CD11b); experiment: Flow cytometry of secretory vesicle mobilization (CD11b) in human neutrophils; type: cell-based; conditions: 10 μM, 1 hour; GM-CSF + fMLP; relative to DMSO; N=15 donors; FIG. 7
Text: (§1) Human neutrophils were isolated from normal donor's blood by Ficoll density centrifugation, as described previously (23). Murine bone marrow-derived neutrophils were isolated using a Percoll gradient fractionation system as described (24). A three-layer Percoll gradient was used (52%, 64%, and 72%), and neutrophils were isolated from the 64-72% interface, washed, and used in the assays.
(§2) Method: The up-regulation of granule membrane-associated neutrophil markers at the plasma membrane was analyzed by flow cytometry. In these studies, flow cytometry analysis was performed by resuspension of 1×10^6 human neutrophils in phenol red-free RPMI 1640 medium, treated with a 10 μM solution of Inhibitors C1, C2, C4, C5, and C6 and Nexinhib 20 (C20) or DMSO control for 1 hour, and stimulated with physiological agonists GM-CSF (10 ng/ml) for 30 min followed by the addition of fMLP (1 μM) to induce degranulation or left untreated at 37 °C (non-stimulated, NS). The reactions were stopped by transferring the samples to ice and immediately spinning down the cells to initiate blocking and staining. To analyze the plasma membrane expression of plasma membrane markers, the cells were blocked in ice-cold PBS containing 1% BSA and stained with phycoerythrin (PE)-, FITC-, or Alexa647-conjugated anti-human CD63, CD66b, MMP9, and CD11b antibodies that detect extracellular epitopes of these markers. The cells were then washed and fixed in 1% paraformaldehyde in PBS. Samples were analyzed using a NovoCyte flow cytometer, and the data were processed using FlowJo software.

[2] = system: human neutrophils (specific granule marker CD66b); experiment: Flow cytometry of specific granule exocytosis (CD66b) in human neutrophils; type: cell-based; conditions: 1 hour, GM-CSF + fMLP; for Inhibition of CD66b up-regulation: relative to DMSO; for inhibition at 10 µM: Homo sapiens, Neutrophil, FIG. 5, read-out: % inhibition of CD66b up-regulation
Text: as §1, §2

[3] = system: human neutrophils (azurophilic granule marker CD63); experiment: Flow cytometry of azurophilic granule mobilization (CD63) in human neutrophils; type: cell-based; conditions: 1 hour, GM-CSF + fMLP; for Inhibition of CD63 up-regulation: 10 μM, relative to DMSO, FIG. 4; for inhibition at 10 µM: Homo sapiens, Neutrophil, N=15 donors, FIG. 4, read-out: Mean % inhibition of CD63 up-regulation
Text: as §1, §2

mouse neutrophils = experiment: Isoluminol-dependent chemiluminescence assay of MPO secretion in purified mouse neutrophils; type: cell-based
Text: FIGS. 3A-C illustrate the effect of Inhibitors C1, C2, C4, C5, and C6 and comparator Nexinhib 20 (shown as “C20”) on MPO secretion of mouse neutrophils. FIG. 3A is a schematic representation of a cell-based secondary screening assay used to analyze the potency the potency of Rab27a-JFC1 inhibitors for their ability to decrease exocytosis of intact human neutrophil. This cell-based assay measures the secretion of myeloperoxidase (MPO) by human neutrophils using cell-impermeant isoluminol-dependent chemiluminescence in the absence of exogenous peroxidases.
as §1
Extracellular MPO-dependent reactive oxygen species (ROS) production was measured using the chemiluminescence reactions mediated by isoluminol (25). To this end, 3×10^5 neutrophils were resuspended in serum-free RPMI 1640 medium in the presence of cell-impermeant isoluminol, and reactions were carried out in the absence of exogenous peroxidase. Neutrophils were incubated in the presence of compounds or DMSO (0.5%) pin-tooled into 384-well plates in a […]. Control experiments were run in parallel in the presence of [COMPOUND LEFT OUT] (0.5 mM) to inhibit endogenous myeloperoxidase. After addition of stimuli (phorbol 12-myristate 13-acetate, “PMA”) or vehicle using liquid handling devices (BioRaptor FRD, Beckman Coulter), MPO-dependent chemiluminescence was continuously monitored for 30 min at 37 °C using a 2104 EnVision multilabel plate reader. For secretion assays, 0.5×10^6 neutrophils were incubated in RPMI 1640 medium in polystyrene 96-well plates in the presence of Inhibitors or dimethyl sulfoxide (DMSO) control for 1 hour and stimulated for the indicated times at 37 °C with PMA (0.1 μg/ml), GM-CSF (10 ng/ml), and fMLP (1 μM) or DMSO control. The cells were spun down, and supernatants were transferred to clean plates using plate filters to avoid contamination from cellular secretory proteins. MPO was measured by ELISA (R&D Systems).
Results: FIG. 3B is a graph showing the effect of Inhibitors C1, C2, C4, C5, and C6 on secreted MPO-dependent reaction using the isoluminol-dependent chemiluminescence assay in highly purified mouse neutrophils. On the graph of FIG. 3B, the pre-fix “NS” means “no stimuli” where the cells were treated with 10 μM C1, C2, C4, C5, C6, and C20 alone without any exocytosis stimuli. The pre-fix “PMA” means the cells were stimulated with PMA to secrete MPO and were treated with 10 μM of the designated Inhibitor. […] Mean % inhibition: C1, 76.74; C2, 59.85; C4, 70.9; C6, 62.4; C20, 99.22.

[4] = system: human neutrophils (Gelatinase granule cargo MMP9); experiment: Flow cytometry of gelatinase granule exocytosis (MMP9) in human neutrophils; type: cell-based; conditions: 1 hour, GM-CSF + fMLP; for Inhibition in MMP9 experiment (words; printed as CD66b up-regulation): 10 μM, relative to DMSO, FIG. 6; for inhibition at 10 µM: Homo sapiens, Neutrophil, N=12 donors, FIG. 6, read-out: % Inhibition of MMP9 up-regulation
Text: as §1, §2

wild-type neutrophils = experiment: Secretion by wild-type neutrophils; type: cell-based
[5] = system: neutrophils that carry the NLRP3 A350V mutation; experiment: Secretion by bone-marrow-derived neutrophils from Nlrp3 A350V (CAPS) mice; type: cell-based, mouse; conditions: 10 μM, 1 hour, LPS and fMLF; for Mobilization of azurophilic granules (MPO) / Mobilization of gelatinase granules (MMP9) / Mobilization of CD63: FIG. 8; for Neutrophil secretion (hyperactivation of secretion): Nlrp3 A350V and wild type, FIG. 8A-C; for Mobilization of CD63: murine neutrophils
Text: FIG. 8A-C. […] A, gelatinase (MMP9) granules; B, azurophilic granules (MPO, myeloperoxidase); C, CD63 (an endolysosomal marker). […] Subsequently, neutrophils were either stimulated with lipopolisacharide (LPS) and the chemotatctic peptide fMLF or left untreated. C20 (Nexinhib20 is used as control). Mean±SEM, n=3. In this and subsequent figures, p<0.05; **, p<0.01; ***, p<0.001; ****, p<0.0001, ANOVA.
These compounds are now tested using neutrophils from a mouse model of Cryopyrin-Associated Periodic Syndrome (CAPS), a systemic inflammatory disease in humans, caused by gain-of-function mutations of the NOD-like receptor family member, cryopirin, also known as NLRP3 (J Cin Immunol 39, 277-286, doi:10.1007/s10875-019-00638-z (2019)). Heterozygous NLRP3 mutations lead to hyper-responsive NLRP3 inflammasome function characterized by increased caspase-1 (Casp1) activation and […], and is observed in patients and in animal models with NLRP3-gain-of-function mutations. […] Subsequently, neutrophils were either stimulated with LPS and the chemotatctic peptide fMLF or left untreated.

[6] = 10 μM inhibitor, PMA stimulated, FIG. 3B
[7] = Mus musculus, Neutrophil, 10 μM inhibitor, PMA stimulated, FIG. 3B

Structure (SMILES)	Release of CD11b+ vesicles / CD11b upregulation [1]	% inhibition of CD66b up-regulation ([2]; 10 μM, N=12 donors, FIG. 5) [%]	Inhibition of CD66b up-regulation ([2]; 10 μM, FIG. 5)	Inhibition of CD63 up-regulation [3]	Mean % inhibition of MPO-dependent chemiluminescence (MPO secretion) (mouse neutrophils; [6]) [%]	Inhibition in MMP9 experiment (words; printed as CD66b up-regulation) [4]	inhibition at 10 µM ([2]; N=12 donors) [%]	Inhibitory effect on wild-type neutrophils (wild-type neutrophils)	Mobilization of azurophilic granules (MPO) [5]	Mobilization of gelatinase granules (MMP9) [5]	Neutrophil secretion (hyperactivation of secretion) [5]	Mobilization of CD63 [5]	Inhibition of exocytosis vs DMSO control (mouse neutrophils; [6])	inhibition at 10 µM (mouse neutrophils; [7]) [%]	inhibition at 10 µM [4] [%]	inhibition at 10 µM [3] [%]	Neutrophil secretion (hyperactivation of secretion) ([5]; listed as C1)	Neutrophil secretion (hyperactivation of secretion) ([5]; listed as NEIa-C1)	IC50 (mouse neutrophils; Mus musculus, Neutrophil, dose-response analysis, FIG. 3C) [nM]
CNC(=O)/C(=C/c1cccc([N+](=O)[O-])c1)n1cncn1 [153 (C5)]	unaffected																		
CC(C)(C)C(=O)/C(=C/c1cccc([N+](=O)[O-])c1)n1cncn1 [Nexinhib20, reference compound]	significantly inhibited CD11b upregulation at the plasma membrane (to levels lower than basal controls)	100	marked and significant inhibition of CD66b up-regulation	marked and significant inhibition of CD63 up-regulation	99.22	marked inhibition of CD66b up-regulation													
O=C(Nc1ccccc1)/C(=C/c1cccc([N+](=O)[O-])c1)n1cncn1 [152 (C4)]	unaffected		marked and significant inhibition of CD66b up-regulation				48.1	selective inhibitory effect on wild-type neutrophils	inhibit the mobilization	inhibit the mobilization of gelatinase granules (MMP9)	inhibit the hyperactivation of secretion	significantly inhibited the mobilization of CD63	significant inhibition of exocytosis	70.9	16.4				
CN(C)c1cccc(/C=C(/C(=O)C(C)(C)C)n2cncn2)c1 [150 (C1)]	unaffected		marked and significant inhibition of CD66b up-regulation	marked and significant inhibition of CD63 up-regulation		marked inhibition of CD66b up-regulation	57.6	selective inhibitory effect on wild-type neutrophils	inhibit the mobilization	inhibit the mobilization of gelatinase granules (MMP9)		significantly inhibited the mobilization of CD63	significant inhibition of exocytosis	76.7	55.3	93.1	inhibit the hyperactivation of secretion	significantly inhibit secretion	860
CC(C)(C)C(=O)C(=Cc1cccc(O)c1)n1cncn1 [151 (C2)]	unaffected		marked and significant inhibition of CD66b up-regulation	marked and significant inhibition of CD63 up-regulation		marked inhibition of CD66b up-regulation	35.8	selective inhibitory effect on wild-type neutrophils					significant inhibition of exocytosis	59.9	26.5	59.5			
